Results from patent EP4631940A1, “COMPOUND TARGETING PAN-KRAS PROTEIN DEGRADATION AGENT AND USE THEREOF” (Betta Pharmaceuticals Co., Ltd., priority 2022, dated 2024).
Like-named read-outs stand apart in the source and are kept apart here.

What was measured:
[1] = test system: AGS; test: Cell proliferation experiment (CellTiter-Glo); format: cell-based; details: read-out: IC50(nM) AGS
[2] = test system: SW620; test: Cell proliferation experiment (CellTiter-Glo); format: cell-based; details: read-out: IC50(nM) SW620
[3] = biological target: KRAS G12D (Homo sapiens, UniProt P01116, G12D)
[4] = AGS, KRAS mutation type G12D, 96 h incubation
[5] = SW620, KRAS mutation type G12V, 96 h incubation

KRAS G12D, sequence (P01116 1-188 isoform P01116-2 G12D): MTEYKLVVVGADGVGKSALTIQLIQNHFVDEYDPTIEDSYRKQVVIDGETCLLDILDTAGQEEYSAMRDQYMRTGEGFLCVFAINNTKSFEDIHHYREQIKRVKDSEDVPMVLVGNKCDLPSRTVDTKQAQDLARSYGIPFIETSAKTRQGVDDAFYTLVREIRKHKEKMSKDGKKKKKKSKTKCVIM

For CCc1c(F)ccc2cc(O)cc(-c3ncc4c(N5CCC[C@@](C)(O)C5)nc(OCC5(CN6CCC(OCc7cnc(-c8cn([C@H](C(=O)N9C[C@H](O)C[C@H]9C(=O)N[C@@H](C)c9ccc(-c%10scnc%10C)cc9)C(C)C)nn8)cn7)CC6)CC5)nc4c3F)c12 [Compound 198], the IC50 [1, 4] was 6.9 nM and the IC50 [2, 5] was 21 nM.
Compound CCc1c(F)ccc2cc(O)cc(-c3ncc4c(N5CCC[C@@](C)(O)C5)nc(OCC5(CN6CCN(CCOc7cc([C@H](C(=O)N8C[C@H](O)C[C@H]8C(=O)N[C@@H](C)c8ccc(-c9scnc9C)cc8)C(C)C)on7)CC6)CC5)nc4c3F)c12 [Compound 175] has an IC50 [1, 4] of 26 nM and an IC50 [2, 5] of 70 nM.
In the case of “(2S,4R)-1-((S)-2-(4-(5-(3-(4-((1-((7-(8-ethyl-7-fluoro-3-hydroxynaphthalen-1-yl)-8-fluoro-4-((R )-3-hydroxy-3-methylpiperidin-1-yl)pyrido[4,3-d]pyrimidin-2-yl)oxy)methyl)cyclopropyl)methy l)piperazin-1-yl)azetidin-1-yl)pyrazin-2-yl)-1H-1,2,3-triazol-1-yl)-3-methylbutanoyl)-4-hydroxy -N-((R)-2-hydroxy-1-(4-(4-methylthiazol-5-yl)phenyl)ethyl)pyrrolidine-2-carboxamide [Compound 192]”, the IC50 [1, 4] is reported as 3.2 nM and the IC50 [2, 5] is reported as 17 nM.
In the case of CCc1c(F)ccc2cc(O)cc(-c3ncc4c(N5CCC[C@@](C)(O)C5)nc(OCC5(CN6CCC(c7cc([C@H](C(=O)N8C[C@H](O)C[C@H]8C(=O)N[C@@H](C)c8ccc(-c9scnc9C)cc8)C(C)C)on7)CC6)CC5)nc4c3F)c12 [Compound 147], the DC50 [3] is reported as 24 nM, the “Dmax (%)” value [3] is reported as 95% and the IC50 [1] is reported as 16 nM.
For CCc1c(F)ccc2cc(O)cc(-c3ncc4c(N5CCC[C@@](C)(O)C5)nc(OCC5(CN6CCN(C7CCN(c8cnc(-c9cn([C@H](C(=O)N%10C[C@H](O)C[C@H]%10C(=O)N[C@@H](C)c%10ccc(-c%11scnc%11C)cc%10)C(C)C)nn9)cn8)CC7)CC6)CC5)nc4c3F)c12 [Compound 197], the IC50 [1, 4] was 6.1 nM and the IC50 [2, 5] was 32 nM.
Compound “(2S,4R)-1-((S)-2-(4-(5-((1-((1-(((7-(8-ethyl-7-fluoro-3-hydroxynaphthalen-1-yl)-8-fluoro-4-((R)-3-hydroxy-3-methylpiperidin-1-yl)pyrido[4,3-d]pyrimidin-2-yl)oxy)methyl)cyclopropyl)methyl) piperidin-4-yl)methyl)piperazin-2-yl)-1H-1,2,3-triazol-1-yl)-3-methylbutanoyl)-4-hydroxy-N-((S )-1-(4-(4-methylthiazol-5-yl)phenyl)ethyl)pyrrolidine-2-carboxamide [Compound 193]” has an IC50 [1] of 7.3 nM and an IC50 [2] of 24 nM.
Compound CCc1c(F)ccc2cc(O)cc(-c3ncc4c(N5CCC[C@@](C)(O)C5)nc(OCC5(CN6CCN(C(=O)c7cnc(-c8cn([C@H](C(=O)N9C[C@H](O)C[C@H]9C(=O)N[C@@H](C)c9ccc(-c%10scnc%10C)cc9)C(C)C)nn8)cn7)CC6)CC5)nc4c3F)c12 [Compound 173] has an IC50 [1, 4] of 6 nM and an IC50 [2, 5] of 35 nM.
Work on “(2S,4R)-1-((S)-2-(4-(5-(2-(4-((1-((7-(8-ethyl-7-fluoro-3-hydroxynaphthalen-1-yl)-8-fluoro-4-((R )-3-hydroxy-3-methylpiperidin-1-yl)pyrido[4,3-d]pyrimidin-2-yl)oxy)methyl)cyclopropyl)methy l)piperazin-1-yl)-2-oxyethyl)pyrazin-2-yl)-1H-1,2,3-triazol-1-yl)-3-methylbutanoyl)-4-hydroxy-N-((S)-1-(4-(4-methylthiazol-5-yl)phenyl)ethyl)pyrrolidine-2-carboxamide [Compound 174]” yielded an IC50 [1, 4] of 8 nM and an IC50 [2, 5] of 59 nM.
In the case of CCc1c(F)ccc2cc(O)cc(-c3ncc4c(N5CCC[C@@](C)(O)C5)nc(OCC5(CN6CCC(N7CCC(c8cnc(-c9cn([C@H](C(=O)N%10C[C@H](O)C[C@H]%10C(=O)N[C@@H](C)c%10ccc(-c%11scnc%11C)cc%10)C(C)C)nn9)cn8)CC7)CC6)CC5)nc4c3F)c12 [Compound 195], the IC50 [1, 4] is reported as 4.4 nM and the IC50 [2, 5] is reported as 18 nM.
In the case of “(2S,4R)-1-((S)-2-(4-(5-(2-(4-((1-(((7-(8-ethyl-7-fluoro-3-hydroxynaphthalen-1-yl)-8-fluoro-4-(( R)-3-hydroxy-3-methylpiperidin-1-yl)pyrido[4,3-d]pyrimidin-2-yl)oxy)methyl)cyclopropyl)meth yl)piperazin-1-yl)ethyl)pyrazin-2-yl)-1H-1,2,3-triazol-1-yl)-3-methylbutanoyl)-4-hydroxy-N-((S )-1-(4-(4-methylthiazol-5-yl)phenyl)ethyl)pyrrolidine-2-carboxamide [Compound 191]”, the IC50 [1] is reported as 3.1 nM and the IC50 [2] is reported as 12 nM.
“(3S,7aS)-7a-((7-(7-(8-ethyl-7-fluoro-3-hydroxynaphthalen-1-yl)-8-fluoro-4-((R)-3-hydroxy-3-m ethylpiperidin-1-yl)pyrido[4,3-d]pyrimidin-2-yl)pyrimidin-2-yl)oxy)methyl)-6-methylenehexahy dro-1H-pyrrolizin-3-yl)methyl-4-(((5-(R)-1-(2S,4R)-4-hydroxy-2-(((S)-1-(4-(4-methylthiazol-5-yl)phenyl)ethyl)carbamoyl)pyrrolidin-1-yl)-3-methyl-1-oxobutan-2-yl)isoxazol-3-yl)oxy)methyl )piperidine-1-carboxylate [Compound 125]” showed an IC50 [1, 4] of 52 nM.
With “(2S,4R)-1-((S)-2-(4-(3-((1-((1-((7-(8-ethyl-7-fluoro-3-hydroxynaphthalen-1-yl)-8-fluoro-4-((R)-3-hydroxy-3-methylpiperidin-1-yl)pyrido[4,3-d]pyrimidin-2-yl)oxy)methyl)cyclopropyl)methyl) piperidin-4-yl)methyl)amino)bicyclo[1.1.1]pent-1-yl)-1H-1,3-triazol-1-yl)-3-methylbutanoyl)-4-hydroxy-N-((S)-1-(4-(4-methylthiazol-5-yl)phenyl)ethyl)pyrrolidine-2-carboxamide [Compound 180]” the IC50 [1, 4] was 20 nM.
For C=C1CN2[C@H](CN3CCC(c4cn([C@H](C(=O)N5C[C@H](O)C[C@H]5C(=O)N[C@@H](C)c5ccc(-c6scnc6C)cc5)C(C)C)nn4)CC3)CC[C@@]2(COc2nc(N3CCC[C@@](C)(O)C3)c3cnc(-c4cc(O)cc5ccc(F)c(CC)c45)c(F)c3n2)C1 [Compound 123], the DC50 [3] was 122 nM and the IC50 ([1]; Homo sapiens, AGS, 96 h) was 82 nM.
For “(2S,4R)-1-((S)-2-(4-(6-((4-((1-(((7-(8-ethyl-7-fluoro-3-hydroxynaphthalen-1-yl)-8-fluoro-4-((R)-3-hydroxy-3-methylpiperidin-1-yl)pyrido[4,3-d]pyrimidin-2-yl)oxy)methyl)cyclopropyl)methyl) pyridin-1-yl)methyl)pyridin-3-yl)-1H-1,2,3-triazol-1-yl)-3-methylbutanoyl)-4-hydroxy-N-((S)-1-(4-(4-methylthiazol-5-yl)phenyl)ethyl)pyrrolidine-2-carboxamide [Compound 179]”, the IC50 [1] was 27 nM.
Work on CCc1c(F)ccc2cc(O)cc(-c3ncc4c(N5CCC[C@@](C)(O)C5)nc(OCC5(CN6CCN(C7CCN(c8cc([C@H](C(=O)N9C[C@H](O)C[C@H]9C(=O)N[C@H](C)c9ccc(-c%10scnc%10C)cc9)C(C)C)on8)CC7)CC6)CC5)nc4c3F)c12 [Compound 164] yielded an IC50 [1, 4] of 38 nM.
